The test system of data set [1] is Murine EL-4 lymphoma cell line overexpressing human RORγt. The experiment in a line: IL-17 secretion from EL4 murine lymphoma. In kind it is cell-based. The note with it: Mus musculus; human RORγt-transfected EL4 cells, PMA (10 ng/mL) and ionomycin (1 μM), 24 h; read-out: IC50, IL-17 secretion inhibition. The gist of the method: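 EL-4 cells electroporated with hRORγt plasmid, seeded at 150000 cells/well and pretreated with compound for 24 h, then stimulated with PMA (10 ng/mL) plus ionomycin (1 μM final) with compound for a further 24 h at 37 °C. IL-17 in supernatant measured by HTRF or ELISA.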

Another data set deals with T1, human RORγt (Homo sapiens, UniProt P51449).
T1 construct: the full-length cDNA of human RORγt; expressed in transfected cells; host or cells: COS-7 (monkey kidney)
T1 sequence (P51449 1-497 isoform P51449-2): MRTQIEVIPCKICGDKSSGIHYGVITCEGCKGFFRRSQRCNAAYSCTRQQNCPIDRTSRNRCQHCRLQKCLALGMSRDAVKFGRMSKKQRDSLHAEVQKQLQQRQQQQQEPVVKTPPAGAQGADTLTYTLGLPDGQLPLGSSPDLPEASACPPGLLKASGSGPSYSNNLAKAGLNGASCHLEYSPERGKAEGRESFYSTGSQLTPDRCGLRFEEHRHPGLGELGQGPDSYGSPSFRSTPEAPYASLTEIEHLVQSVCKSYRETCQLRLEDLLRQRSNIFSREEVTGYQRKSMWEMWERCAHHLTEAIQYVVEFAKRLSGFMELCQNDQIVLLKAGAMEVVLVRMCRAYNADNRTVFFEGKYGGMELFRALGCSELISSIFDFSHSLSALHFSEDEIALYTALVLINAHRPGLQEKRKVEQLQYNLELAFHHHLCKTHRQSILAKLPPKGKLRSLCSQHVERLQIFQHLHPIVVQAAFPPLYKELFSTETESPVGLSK
Description: RORE Luciferase/RORγt transactivation assay. The data set is classed as cell-based. The note with it: COS-7 cells transfected with human IL-17 promoter luciferase reporter and RORγt plasmid; 20 h with compound; read-out: IC50, RORγt activity inhibition. The gist of the method:
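Transactivation read-out: luminescence (Steady-Glo, 30 min at room temperature) from COS-7 cells carrying a RORγt expression plasmid plus a 4.3 kb IL-17 promoter luciferase reporter. Compound exposure was in serum-free DMEM with 0.3% DMSO final. Reported values are IC50 (μM) and Emax (%).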
Background: In a reporter assay the amount or activity of a reporter protein is the signal.

The target in data set [2] is T2, RORγt ligand-binding domain (RORγt-LBD) (Homo sapiens, UniProt P51449).
T2 construct: 20 nM recombinantly expressed RORγ-LBD fused to GST
T2 sequence (P51449 269-508 limits assumed): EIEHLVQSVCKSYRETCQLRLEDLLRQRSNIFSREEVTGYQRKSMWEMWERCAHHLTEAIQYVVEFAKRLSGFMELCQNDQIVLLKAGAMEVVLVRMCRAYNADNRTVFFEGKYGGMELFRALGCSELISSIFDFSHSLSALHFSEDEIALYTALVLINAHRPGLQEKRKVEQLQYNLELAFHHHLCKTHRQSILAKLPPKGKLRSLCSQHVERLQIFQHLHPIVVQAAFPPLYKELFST
The experiment in a line: Time-resolved FRET (TR-FRET) RORγt coactivator assay. The settings on record: GST-RORγ-LBD, biotinylated RIP140 peptide, 2 hours at room temperature. The text has this: Time-resolved FRET (TR-FRET) RORγt coactivator assay was used to identify RORγ modulator compounds with ligand-dependent coactivator displacement. The assay uses a d2-labeled anti-GST antibody, synthetic N-terminally biotinylated peptide which is derived from nuclear receptor coactivator protein RIP140, and a RORγt ligand-binding domain (RORγt-LBD) that is tagged with glutathione-S-transferase (GST). The influence of compounds on the RORγ-peptide interaction relies on the binding dependent energy transfer from a donor to an acceptor fluorophor attached to the binding partner of interest. […] For reduction of background from compound fluorescence, TR-FRET method makes use of generic fluorophore labels and time resolved detection.
The assays were done in a final volume of 20 μl in a 384 well plate in a CHAPS buffer (2 mM CHAPS; 1 mM DTT, 2 mM EDTA; 0.1% BSA), containing 20 nM recombinantly expressed RORγ-LBD fused to GST, 30 nM N-terminally biotinylated peptide, 1 nM streptavidin-terbium conjugate and 20 nM d2 labeled-anti-GST. Test compounds were diluted using 10 mM stock solution. The range of the final compound concentrations used in this test was from 0.3 nM to 30 μM (logarithmic scale). DMSO content of the samples was kept at 1%. The assay was equilibrated for 2 hours in the dark at room temperature in 384 well plates (Falcon). The signal was detected by an Ultra384 reader (TECAN). […] Compounds that promote coactivator displacement induce a concentration-dependent decrease in time-resolved fluorescent signal. Data were collected and analyzed using GraphPad Prism software (GraphPad Software V5.02, San Diego Calif. USA). IC50 in μM and Emax in % were reported for each compound.
(In general: TR-FRET usually uses a lanthanide donor and a delayed reading to cut background.)

Where “and” joins values, the source holds several entries; their conditions need not be identical. Equal entries are not always repeated.

Regarding `Cc1ccc(C(NC(=O)Cc2ccc3c(c2)OCC(=O)N3)c2ccccc2)c(N2CCCCC2)c1` (stereo not drawn) [Cpd. 1, N-{[4-methyl-2-(piperidin-1-yl)phenyl](phenyl)methyl}-2-(3-oxo-3,4-dihydro-2H-1,4-benzoxazin-7-yl)acetamide], the IC50 (in data set [1]; on human RORγt; in data set [2]) was 100 to 1000 nM throughout.
Turning to `Cc1ccc(C(NC(=O)Cc2ccc3c(c2)OCC(=O)N3)c2ccccc2)c(N2CCOCC2)c1` (stereo not drawn) [Cpd. 2, N-{[4-methyl-2-(morpholin-4-yl)phenyl](phenyl)methyl}-2-(3-oxo-3,4-dihydro-2H-1,4-benzoxazin-7-yl)acetamide], the half-maximal inhibitory concentration (IC50) (in general, the concentration needed to halve the response being measured) in data set [1] was greater than 10000 nM; on human RORγt, 1000 to 10000 nM; in data set [2], 10 to 100 nM.
`O=C1COc2cc(CC(=O)NC(c3ccccc3)c3ccccc3N3CCCCC3)ccc2N1` (stereo not drawn) [Cpd. 3, 2-(3-oxo-3,4-dihydro-2H-1,4-benzoxazin-7-yl)-N-{phenyl[2-(piperidin-1-yl)phenyl]methyl}acetamide]: the IC50 in data set [1] was in the range of 1000 to 10000 nM; on human RORγt it was 1000 to 10000 nM; in data set [2], 100 to 1000 nM.
Consider `COc1ccc(C(NC(=O)Cc2ccc3c(c2)OCC(=O)N3)c2ccccc2)c(N2CCCCC2)c1` (stereo not drawn) [Cpd. 4, N-{[4-methoxy-2-(piperidin-1-yl)phenyl](phenyl)methyl}-2-(3-oxo-3,4-dihydro-2H-1,4-benzoxazin-7-yl)acetamide], for which the half-inhibitory concentration (IC50) in data set [1] is 100 to 1000 nM; at human RORγt it was 100 to 1000 nM; in data set [2], 10 to 100 nM.
Take `O=C1COc2cc(CC(=O)NC(c3ccccc3)c3ccccc3N3CCCC3)ccc2N1` (stereo not drawn) [Cpd. 5, 2-(3-oxo-3,4-dihydro-2H-1,4-benzoxazin-7-yl)-N-{phenyl[2-(pyrrolidin-1-yl)phenyl]methyl}acetamide]: the IC50 was greater than 10000 nM in data set [1], 1000 to 10000 nM on human RORγt and 10 to 100 nM in data set [2].
The matching figures for `Cc1ccc(C(NC(=O)Cc2ccc3[nH]c(=O)cc(C)c3c2)c2ccccc2)c(N2CCCCC2)c1` (stereo not drawn) [Cpd. 11, N-{[4-methyl-2-(piperidin-1-yl)phenyl](phenyl)methyl}-2-(4-methyl-2-oxo-1,2-dihydroquinolin-6-yl)acetamide]: 1000 to 10000 nM, 1000 to 10000 nM and 100 to 1000 nM.
`Cc1ccc(C(NC(=O)Cc2ccc3c(c2)CC(=O)N3)c2ccccc2)c(N2CCCCC2)c1` (stereo not drawn) [Cpd. 16, N-{[4-methyl-2-(piperidin-1-yl)phenyl](phenyl)methyl}-2-(2-oxo-2,3-dihydro-1H-indol-5-yl)acetamide]: the 50% inhibitory concentration (IC50) was 100 to 1000 nM in data set [1]; 100 to 1000 nM and 10 to 100 nM on human RORγt; 10 to 100 nM in data set [2].
Take `Cc1ccc(C(NC(=O)Cc2ccc3c(c2)C(=O)C(=O)N3)c2ccc(C)o2)c(N2CCCCC2)c1` (stereo not drawn) [Cpd. 23, 2-(2,3-dioxo-2,3-dihydro-1H-indol-5-yl)-N-{[4-methyl-2-(piperidin-1-yl)phenyl](5-methylfuran-2-yl)methyl}acetamide]: the IC50 (in data set [1]; on human RORγt; in data set [2]) was 100 to 1000 nM each time.
Regarding `Cc1ccc(C(NC(=O)Cc2ccc3c(c2)OC(C)(C)C(=O)N3)c2ccc(C)o2)c(N2CCCCC2)c1` (stereo not drawn) [Cpd. 25, 2-(2,2-dimethyl-3-oxo-3,4-dihydro-2H-1,4-benzoxazin-7-yl)-N-{[4-methyl-2-(piperidin-1-yl)phenyl](5-methylfuran-2-yl)methyl}acetamide], the IC50 in data set [1] lay within 1000 to 10000 nM; at human RORγt, 100 to 1000 nM; in data set [2], 100 to 1000 nM.
For the compound `Cc1ccc(C(NC(=O)Cc2ccc3c(c2)CS(=O)(=O)N3)c2ccc(C)o2)c(N2CCCCC2)c1` (stereo not drawn) [Cpd. 27, 2-(2,2-dioxo-1,3-dihydro-2,1-benzothiazol-5-yl)-N-{[4-methyl-2-(piperidin-1-yl)phenyl](5-methylfuran-2-yl)methyl}acetamide], the IC50 in data set [1] is 100 to 1000 nM; on human RORγt, 10 to 100 nM; in data set [2], less than 10 nM.
Taken in the same sequence, the figures for `Cc1ccc(C(NC(=O)Cc2ccc3c(c2)C(=Cc2cnc(N)s2)C(=O)N3)c2ccc(C)o2)c(N2CCCCC2)c1` (stereo not drawn) [Cpd. 44, 2-{3-[(2-amino-1,3-thiazol-5-yl)methylidene]-2-oxo-2,3-dihydro-1H-indol-5-yl}-N-{[4-methyl-2-(piperidin-1-yl)phenyl](5-methylfuran-2-yl)methyl}acetamide] were 1000 to 10000 nM, 100 to 1000 nM and 100 to 1000 nM.
Consider `Cc1ccc(C(NC(=O)Cc2ccc3c(c2)/C(=C\C(C)C)C(=O)N3)c2ccc(C)o2)c(N2CCCCC2)c1` (stereo not drawn) [Cpd. 48, N-{[4-methyl-2-(piperidin-1-yl)phenyl](5-methylfuran-2-yl)methyl}-2-[(3E)-3-(2-methylpropylidene)-2-oxo-2,3-dihydro-1H-indol-5-yl]acetamide], for which the melting point – broadly, the temperature of the solid-liquid transition – worked out at 91 °C. Besides, at human RORγt, the IC50 was 100 to 1000 nM. In addition, the IC50 in data set [2] was 100 to 1000 nM.
Regarding `Cc1ccc(C(NC(=O)Cc2ccc3c(c2)CCC3O)c2ccc(C)o2)c(N2CCCCC2)c1` (stereo not drawn) [Cpd. 52, 2-(1-hydroxy-2,3-dihydro-1H-inden-5-yl)-N-{[4-methyl-2-(piperidin-1-yl)phenyl](5-methylfuran-2-yl)methyl}acetamide], the values for the half-maximal inhibitory concentration (IC50) (in data set [1]; on human RORγt; in data set [2]) were 100 to 1000 nM, 10 to 100 nM and less than 10 nM, respectively.
As for `Cc1ccc(C(NC(=O)Cc2ccc3c(c2)C(O)C(=O)N3C)c2ccc(C)o2)c(N2CCCCC2)c1` (stereo not drawn) [Cpd. 53, 2-(3-hydroxy-1-methyl-2-oxo-2,3-dihydro-1H-indol-5-yl)-N-{[4-methyl-2-(piperidin-1-yl)phenyl](5-methylfuran-2-yl)methyl}acetamide], the results for the 50% inhibitory concentration (IC50) (in data set [1]; at human RORγt; in data set [2]) were 100 to 1000 nM, 10 to 100 nM and less than 10 nM, respectively.
In the case of `Cc1ccc(C(NC(=O)C2(c3ccc4c(c3)OCC(=O)N4)CC2)c2ccc(C)o2)c(C)c1` (stereo not drawn) [Cpd. 59, N-[(2,4-dimethylphenyl)(5-methylfuran-2-yl)methyl]-1-(3-oxo-3,4-dihydro-2H-1,4-benzoxazin-7-yl)cyclopropane-1-carboxamide], the concentration for half-maximal inhibition (IC50) was less than 100 nM in data set [1], less than 10 nM on human RORγt and less than 10 nM in data set [2].
In turn, `Cc1ccc(C(NC(=O)Cc2ccc3c(ccn3CCC(=O)O)c2)c2ccc(C)o2)c(C)c1` (stereo not drawn) [Cpd. 101, 3-[5-({[(2,4-dimethylphenyl)(5-methylfuran-2-yl)methyl]carbamoyl}methyl)-1H-indol-1-yl]propanoic acid] had a melting point of 65 °C. Besides, the IC50 at human RORγt is 100 to 1000 nM. In data set [2], this compound had an IC50 of 10 to 100 nM.
`Cc1ccc(C(NC(=O)Cc2ccc3c(ccn3CCC(=O)O)c2)c2ccc(C)o2)c(Br)c1` (stereo not drawn) [Cpd. 102, 3-[5-({[(2-bromo-4-methylphenyl)(5-methylfuran-2-yl)methyl]carbamoyl}methyl)-1H-indol-1-yl]propanoic acid]: the melting point was found to be 70 °C. In addition, the IC50 at human RORγt lay in the range of 100 to 1000 nM. Also, in data set [2], the IC50 fell in the range of 10 to 100 nM.

For the origin of these results see patent US11052092B2, “N-{[2-(piperidin-1-yl)phenyl](phenyl)methyl}-2-(3-oxo-3,4-dihydro-2H-1,4-benzoxazin-7-yl)acetamide derivatives and related compounds as ROR-gamma modulators for treating autoimmune diseases” (Genfit, priority 2017, dated 2021).
